The test deals with IL-23R (Homo sapiens, UniProt Q5VWK5). Description: cell-based. The conditions noted are these: PBMC pSTAT3 IC50 (nM), PBMCs from healthy donors, IL-23 5 ng/mL, 30 minutes, phosphorylated STAT3.

The source of these data is patent publication US20240383954A1, “PEPTIDE INHIBITORS OF INTERLEUKIN-23 RECEPTOR AND THEIR USE TO TREAT INFLAMMATORY DISEASES” (Janssen Biotech, Inc., priority 2020, published 2024).

What is called IC50 is the concentration that gives 50% inhibition. A high value points to lower potency.

Starred links: 1 amine or outer side, 2 acyl side, 3 side chain; linkers in the order of their positions; H or OH if unused. Positions of bridges follow the written chain, without caps; N, C: chain ends. Non-standard residues stand in square brackets, D forms with d. Residues, ends and D or L forms follow the SMILES beside them. *: point of attachment. Trp(7-Me) = Cc1cccc2c(C[C@H](N)C(=O)O)c[nH]c12; Abu(4-yl) = O=C([C@H](CC[*:3])N[*:1])[*:2]; Ac6c(4,4-F2) = NC1(C(=O)O)CCC(F)(F)CC1; 2Nal = N[C@@H](Cc1ccc2ccccc2c1)C(=O)O; AEF = NCCOc1ccc(C[C@H](N)C(=O)O)cc1; αMeF = C[C@](N)(Cc1ccccc1)C(=O)O; Pen = CC(C)(S)[C@H](N)C(=O)O; αMeK = C[C@](N)(CCCCN)C(=O)O; Isobutyryl = CC(C)C(=O)*; Thp = NC1(C(=O)O)CCOCC1; Aib = CC(C)(N)C(=O)O; X6 = c1cc(N*)n[nH]1
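Also: cryopreserved PBMCs stimulated at 37 °C in 5% CO2, then lysed, with phosphorylated STAT3 quantified in lysates using a phospho-STAT panel kit.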

IL-23R, sequence (Q5VWK5 24-629): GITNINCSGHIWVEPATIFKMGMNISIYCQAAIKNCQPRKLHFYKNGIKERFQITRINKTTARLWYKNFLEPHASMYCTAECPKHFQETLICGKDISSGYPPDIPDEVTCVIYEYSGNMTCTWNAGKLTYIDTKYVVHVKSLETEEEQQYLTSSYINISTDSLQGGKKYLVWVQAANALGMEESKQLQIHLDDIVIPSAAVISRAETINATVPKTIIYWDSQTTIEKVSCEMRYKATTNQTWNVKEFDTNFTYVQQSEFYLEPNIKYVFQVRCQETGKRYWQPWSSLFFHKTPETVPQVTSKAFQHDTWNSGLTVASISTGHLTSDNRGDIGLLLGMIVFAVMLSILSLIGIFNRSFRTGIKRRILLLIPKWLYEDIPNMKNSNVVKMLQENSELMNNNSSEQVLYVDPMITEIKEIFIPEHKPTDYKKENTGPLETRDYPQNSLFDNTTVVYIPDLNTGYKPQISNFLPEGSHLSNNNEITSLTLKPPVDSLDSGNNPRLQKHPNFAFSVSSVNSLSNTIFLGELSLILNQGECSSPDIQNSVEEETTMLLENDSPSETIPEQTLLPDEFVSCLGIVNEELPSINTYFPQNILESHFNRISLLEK

`CC(=O)N[C@H](CCCNC(=N)N)C(=O)N[C@@H]1C(=O)N[C@@H](CCC(N)=O)C(=O)N[C@@H]([C@@H](C)O)C(=O)N[C@@H](Cc2c[nH]c3ccccc23)C(=O)N[C@@H](CCC(N)=O)C(=O)N[C@H](C(=O)N[C@@H](Cc2ccc(OCCN)cc2)C(=O)N[C@@H](Cc2ccc3ccccc3c2)C(=O)NC2(C(=O)N[C@@H](CCC(=O)O)C(=O)N[C@@H](CC(N)=O)C(=O)N[C@@](C)(Cc3ccccc3)C(N)=O)CCOCC2)C(C)(C)SSC1(C)C` [Compound 97, Ac-[(D)Arg]-[Pen]-Q-T-W-Q-[Pen]-Phe[4-(2-aminoethoxy)]-[2-Nal]-[THP]-E-N-[a-MePhe]-NH2] (Ac-[dR][Pen]QTWQ[Pen][AEF][2Nal][Thp]EN[αMeF]-NH2; disulfide 2-7) registered a 50% inhibitory concentration (IC50) of 31 nM.
With `CC(=O)NCCCC[C@@H]1NC(=O)[C@H](Cc2c[nH]c3c(C)cccc23)NC(=O)[C@H]([C@@H](C)O)NC(=O)[C@H](CC(N)=O)NC(=O)[C@@H](NC(=O)[C@@H](CCCNC(=N)N)NC(C)=O)C(C)(C)SSC(C)(C)[C@@H](C(=O)N[C@@H](Cc2ccc(OCCN)cc2)C(=O)N[C@@H](Cc2ccc3ccccc3c2)C(=O)NC2(C(=O)N[C@@H](CCC(=O)O)C(=O)N[C@@H](CC(N)=O)C(=O)NC3(C(N)=O)CCOCC3)CCOCC2)NC1=O` [Compound 92, Ac-[(D)Arg]-[Pen]-N-T-[W(7-Me)]-[Lys(Ac)]-[Pen]-Phe[4-(2-aminoethoxy)]-[2-Nal]-[THP]-E-N-[THP]-NH2] (Ac-[dR][Pen]NT[Trp(7-Me)]K(Ac)[Pen][AEF][2Nal][Thp]EN[Thp]-NH2; disulfide 2-7) the figure was 3.3 nM.
The compound `C[C@@H](O)[C@@H]1NC(=O)[C@H](CCC(N)=O)NC(=O)[C@@H](NC(=O)[C@H](N)CCCNC(=N)N)CCSC[C@@H](C(=O)N[C@@H](Cc2ccc(OCCNC(=O)OC(C)(C)C)cc2)C(=O)N[C@@H](Cc2ccc3ccccc3c2)C(=O)NC2(C(=O)N[C@@H](CCC(=O)O)C(=O)N[C@@H](CC(N)=O)C(=O)NC3(C(N)=O)CCOCC3)CCOCC2)NC(=O)[C@H](CCC(N)=O)NC(=O)[C@H](Cc2c[nH]c3ccccc23)NC1=O` [Compound 47, [(D)Arg]-[Abu]-Q-T-W-Q-[Cys]-Phe[4-(2-(Boc)aminoethoxy)]-[2-Nal]-[THP]-E-N-[THP]-NH2] showed an IC50 of 5.3 nM.
`CC(=O)N[C@H](CCCNC(=N)N)C(=O)N[C@@H]1C(=O)N[C@@H](CCC(N)=O)C(=O)N[C@@H]([C@@H](C)O)C(=O)N[C@@H](Cc2c[nH]c3ccccc23)C(=O)N[C@@H](CCC(N)=O)C(=O)N[C@H](C(=O)N[C@@H](Cc2ccc(OCCN)cc2)C(=O)N[C@@H](Cc2ccc3ccccc3c2)C(=O)NC2(C(=O)N[C@@H](CCCCNC(=O)C3CC3)C(=O)N[C@@H](CC(N)=O)C(=O)NC3(C(N)=O)CCOCC3)CCOCC2)C(C)(C)SSC1(C)C` [Compound 51, Ac-[(D)Arg]-[Pen]-Q-T-W-Q-[Pen]-Phe[4-(2-aminoethoxy)]-[2-Nal]-[THP]-[Lys(COcPr)]-N-[THP]-NH2]: the IC50 is 27 nM.
As for `CC(=O)NCCCC[C@@H]1NC(=O)[C@H](Cc2c[nH]c3c(C)cccc23)NC(=O)[C@H]([C@@H](C)O)NC(=O)[C@H](CC(N)=O)NC(=O)[C@@H](NC(=O)[C@@H](CCCNC(=N)N)NC(C)=O)C(C)(C)SSC(C)(C)[C@@H](C(=O)N[C@@H](Cc2ccc(OCCN)cc2)C(=O)N[C@@H](Cc2ccc3ccccc3c2)C(=O)NC2(C(=O)N[C@@H](CCC(=O)O)C(=O)N[C@@H](CC(N)=O)C(=O)NC3(C(N)=O)CCOCC3)CCC(F)(F)CC2)NC1=O` [Compound 303, MeCO-r-Pen-N-T-7MeW-K(Ac)-Pen-AEF-2Nal-4diFAchx-E-N-THP--CONH2] (Ac-[dR][Pen]NT[Trp(7-Me)]K(Ac)[Pen][AEF][2Nal][Ac6c(4,4-F2)]EN[Thp]-NH2; disulfide 2-7), the figure is 1.3 nM.
As to `CC(=O)NCCCC[C@H](NC(=O)[C@](C)(CCCCN)NC(=O)[C@H](Cc1ccc2ccccc2c1)NC(=O)[C@H](Cc1ccc(OCCN)cc1)NC(=O)[C@H]1NC(=O)[C@H](CCCCNC(=O)C(F)(F)F)NC(=O)[C@H](Cc2c[nH]c3ccccc23)NC(=O)[C@H]([C@@H](C)O)NC(=O)[C@H](CC(N)=O)NC(=O)[C@@H](NC(C)=O)C(C)(C)SSC1(C)C)C(=O)N[C@@H](CC(N)=O)C(=O)NC1(C(N)=O)CCOCC1` [Compound 103, Ac-[Pen]-N-T-W-[Lys(COCF3)]-[Pen]-Phe[4-(2-aminoethoxy)]-[2-Nal]-[a-MeLys]-[Lys(Ac)]-N-[THP]-NH2], the IC50 worked out at 57 nM.
`CC(=O)N[C@H](CCCNC(=N)N)C(=O)N[C@@H]1C(=O)N[C@@H](CC(N)=O)C(=O)N[C@@H]([C@@H](C)O)C(=O)N[C@@H](Cc2c[nH]c3c(C)cccc23)C(=O)N[C@@H](CCC(N)=O)C(=O)N[C@H](C(=O)N[C@@H](Cc2ccc(OCCN)cc2)C(=O)N[C@@H](Cc2ccc3ccccc3c2)C(=O)NC2(C(=O)N[C@@H](CCC(=O)O)C(=O)N[C@@H](CC(N)=O)C(=O)NC3(C(N)=O)CCOCC3)CCOCC2)C(C)(C)SSC1(C)C` [Compound 90, Ac-[(D)Arg]-[Pen]-N-T-[W(7-Me)]-Q-[Pen]-Phe[4-(2-aminoethoxy)]-[2-Nal]-[THP]-E-N-[THP]-NH2] (Ac-[dR][Pen]NT[Trp(7-Me)]Q[Pen][AEF][2Nal][Thp]EN[Thp]-NH2; disulfide 2-7) returned an IC50 of 3.7 nM.
Regarding `CC(=O)N[C@H](CCCNC(=N)N)C(=O)N[C@@H]1C(=O)N[C@@H](CCC(N)=O)C(=O)N[C@@H]([C@@H](C)O)C(=O)N[C@@H](Cc2c[nH]c3ccccc23)C(=O)N[C@@H](CCC(N)=O)C(=O)N[C@H](C(=O)N[C@@H](Cc2ccc(OCCN)cc2)C(=O)N[C@@H](Cc2ccc3ccccc3c2)C(=O)NC2(C(=O)N[C@@H](CCCCNC(=O)C(C)C)C(=O)N[C@@H](CC(N)=O)C(=O)N[C@@H](Cc3ccccc3)C(N)=O)CCOCC2)C(C)(C)SSC1(C)C` [Compound 61, Ac-[(D)Arg]-[Pen]-Q-T-W-Q-[Pen]-Phe[4-(2-aminoethoxy)]-[2-Nal]-[THP]-[Lys(COiPr)]-N-F-NH2] (Ac-[dR][Pen]QTWQ[Pen][AEF][2Nal][Thp]K(Isobutyryl)NF-NH2; disulfide 2-7), the IC50 amounted to 70 nM.
`COc1ccc(C[C@H](NC(=O)[C@H](CC(N)=O)NC(=O)[C@](C)(CCC(=O)O)NC(=O)C2(NC(=O)[C@H](Cc3ccc4ccccc4c3)NC(=O)[C@H](Cc3ccc(OCCN)cc3)NC(=O)[C@@H]3CSCC[C@H](NC(=O)[C@@H](CCCNC(=N)N)NC(C)=O)C(=O)N[C@@H](CCC(N)=O)C(=O)N[C@@H]([C@@H](C)O)C(=O)N[C@@H](Cc4c[nH]c5ccccc45)C(=O)N[C@@H](CCC(N)=O)C(=O)N3)CCOCC2)C(N)=O)cc1OC` [Compound 78, Ac-[(D)Arg]-[Abu]-Q-T-W-Q-[Cys]-Phe[4-(2-aminoethoxy)]-[2-Nal]-[THP]-[aMeGlu]-N-[Phe(3,4-diOMe)]-NH2] came in with an IC50 of 31 nM.
As for `CC(=O)N[C@H](CCCNC(=N)N)C(=O)N[C@@H]1C(=O)N[C@@H](CCC(N)=O)C(=O)N[C@@H]([C@@H](C)O)C(=O)N[C@@H](Cc2c[nH]c3ccccc23)C(=O)N[C@@H](CCC(N)=O)C(=O)N[C@H](C(=O)N[C@@H](Cc2ccc(OCCN)cc2)C(=O)N[C@@H](Cc2ccc3ccccc3c2)C(=O)NC2(C(=O)N[C@@H](CCC(=O)O)C(=O)N[C@@H](CC(N)=O)C(=O)N[C@@H](CC(=O)Nc3cc[nH]n3)C(N)=O)CCOCC2)C(C)(C)SSC1(C)C` [Compound 133, Ac-[(D)Arg]-[Pen]-Q-T-W-Q-[Pen]-Phe[4-(2-aminoethoxy)]-[2-Nal]-[THP]-E-N-[(N-(3-Pyz))Asn]-NH2] (Ac-[dR][Pen]QTWQ[Pen][AEF][2Nal][Thp]END(X6)-NH2; disulfide 2-7), the figure is 21 nM; as for `CC(=O)NCCCC[C@@H]1NC(=O)[C@H](Cc2c[nH]c3ccccc23)NC(=O)[C@H]([C@@H](C)O)NC(=O)[C@H](CCC(N)=O)NC(=O)[C@@H](NC(C)=O)C(C)(C)SSC(C)(C)[C@@H](C(=O)N[C@@H](Cc2ccc(OCCN)cc2)C(=O)N[C@@H](Cc2ccc3ccccc3c2)C(=O)N[C@@](C)(CCCCN)C(=O)N[C@@H](CCCCNC(C)=O)C(=O)N[C@@H](CC(N)=O)C(=O)N[C@@](C)(Cc2ccccc2)C(N)=O)NC1=O` [Compound 82, Ac-[Pen]-Q-T-W-[Lys(Ac)]-[Pen]-Phe[4-(2-aminoethoxy)]-[2-Nal]-[a-MeLys]-[Lys(Ac)]-N-[a-MePhe]-NH2] (Ac-[Pen]QTWK(Ac)[Pen][AEF][2Nal][αMeK]K(Ac)N[αMeF]-NH2; disulfide 1-6), 54 nM.
In the case of `CC(=O)NCCCC[C@@H]1NC(=O)[C@H](Cc2c[nH]c3c(C)cccc23)NC(=O)[C@H]([C@@H](C)O)NC(=O)[C@H](CC(N)=O)NC(=O)[C@@H](NC(C)=O)C(C)(C)SSC(C)(C)[C@@H](C(=O)N[C@@H](Cc2ccc(OCCN)cc2)C(=O)N[C@@H](Cc2ccc3ccccc3c2)C(=O)N[C@@](C)(CCCCN)C(=O)N[C@@H](CCCCNC(C)=O)C(=O)N[C@@H](CC(N)=O)C(=O)N[C@@](C)(Cc2ccccc2)C(=O)N[C@H](Cc2cccc(N)c2)C(N)=O)NC1=O` [Compound 115, Ac-[Pen]-N-T-[W(7-Me)]-[Lys(Ac)]-[Pen]-Phe[4-(2-aminoethoxy)]-[2-Nal]-[a-MeLys]-[Lys(Ac)]-N-[a-MePhe]-(D)Phe[3-NH2]-NH2], it took 39 nM to reach half-maximal inhibition (IC50).
As for `CC(=O)N[C@H](CCCNC(=N)N)C(=O)N[C@H]1CCSC[C@@H](C(=O)N[C@@H](Cc2ccc(OCCN)cc2)C(=O)N[C@@H](Cc2ccc3ccccc3c2)C(=O)NC2(C(=O)NC(C)(C)C(=O)N[C@@H](CC(N)=O)C(=O)N[C@@H](Cc3ccccc3)C(N)=O)CCOCC2)NC(=O)[C@H](CCC(N)=O)NC(=O)[C@H](Cc2c[nH]c3ccccc23)NC(=O)[C@H]([C@@H](C)O)NC(=O)[C@H](CCC(N)=O)NC1=O` [Compound 49, Ac-[(D)Arg]-[Abu]-Q-T-W-Q-[Cys]-Phe[4-(2-aminoethoxy)]-[2-Nal]-[THP]-[Aib]-N-F-NH2] (Ac-[dR][Abu(4-yl)]QTWQC[AEF][2Nal][Thp][Aib]NF-NH2; thioether 2-7), the figure is 18 nM; as for `CC(=O)NCCCC[C@@H]1NC(=O)[C@H](Cc2c[nH]c3c(C)cccc23)NC(=O)[C@H]([C@@H](C)O)NC(=O)[C@H](CC(N)=O)NC(=O)[C@@H](NC(C)=O)CSSC[C@@](C)(C(=O)N[C@@H](Cc2ccc(OCCN)cc2)C(=O)N[C@@H](Cc2ccc3ccccc3c2)C(=O)N[C@@](C)(CCCCN)C(=O)N[C@@H](CCCCNC(C)=O)C(=O)N[C@@H](CC(N)=O)C(=O)N[C@@](C)(Cc2ccccc2)C(N)=O)NC1=O` [Compound 118, Ac-[Cys]-N-T-[W(7-Me)]-[Lys(Ac)]-[aMeCys]-Phe[4-(2-aminoethoxy)]-[2-Nal]-[a-MeLys]-[Lys(Ac)]-N-[a-MePhe]-NH2], 30 nM.
